# What was measured:
# Assay type in all cases: cell-based, human
# caspases 3 and 7 = assay: Caspase 3/7 activity assay; conditions: HeLa, 30 minutes, 25 μM peptide (alone or as conjugate) or equivalent polymer, relative to no treatment
# Experimental: (§1) HeLas, human cervical carcinoma cells (ATCC CCL-2), were maintained in minimum essential media (MEM) containing L-glutamine, 1% penicillin-streptomycin, and 10% FBS. Prior to experiments, HeLas were allowed to adhere overnight in 8-well chamber slides (20,000 cells/well) for microscopy or 96-well plates (10,000 cells/well) for other assays. Polymer-peptide conjugates and controls were added in MEM with 1% FBS.
# Caspase 3/7 activation was measured using a commercially available assay kit. This assay utilizes a profluorescent caspase 3/7 substrate that once enzymatically cleaved becomes fluorescent allowing for determination of relative enzyme activity using a fluorescent plate reader. Here, HeLas were incubated for 30 minutes with 25 μM peptide (alone or as polymer conjugate) in addition to polymer alone in a quantity equivalent to the conjugate samples. Afterwards, a caspase 3/7 fluorigenic indicator was added directly to the culture media for each sample. Plates were shaken for 1 hour and then assayed using a fluorescent plate reader. Data were expressed as percent caspase activity relative to samples receiving no treatment.
# HeLa cells [1] = assay: Lactate dehydrogenase (LDH) cytotoxicity assay; conditions: HeLa cervical cancer cells
# Experimental: Bioconjugate efficacy for triggering tumor cell death was determined using a lactate dehydrogenase (LDH) cytotoxicity assay. At the end of each time point, cells were washed two times with PBS and then lysed with cell lysis buffer (100 μL/well, 20 mM Tris-HCl, pH 7.5, 150 mM NaCl, 1 mM Na2EDTA, 1 mM EGTA, 1% Triton, 2.5 mM sodium pyrophosphate, 1 mM β-glycerophosphate, 1 mM sodium orthovanadate) for 1 hour at 4° C. 20 μl of lysate from each sample was diluted into 80 μl PBS, and LDH was quantified by mixing with 100 μL of the LDH substrate solution. Following a 10 minute incubation, LDH was determined by measuring absorbance at 490 nm. Percent viability was expressed relative to samples receiving no treatment.
# HeLa cells [2] = assay: Flow cytometry evaluation of mitochondrial membrane potential (JC-1 dye); conditions: 2 hours, 10 μM peptide or equivalent conjugate or polymer alone, versus no treatment
# Experimental: as §1
# Loss of mitochondrial membrane potential, a known indicator for apoptosis, was assessed using the JC-1 dye. […] HeLas were incubated for 2 hours with 10 μM peptide or equivalent conjugate or polymer alone. JC-1 was added at a final concentration of 5 μg/mL and incubated for 15 minutes. Cells were washed 2 times with PBS, trypsinized, and resuspended in 0.5% BSA for flow cytometric analysis. Percent of cells displaying mitochondrial depolarization was quantified based on the number of green fluorescent cells that were negative for red fluorescence. Here, a significant loss of red fluorescent JC-1 aggregates and therefore a loss in mitochondrial polarization was detected following treatment with both the Antp-BH3 peptide and the polymer peptide conjugate (FIG. 8A).
# HeLa cells [3] = assay: Fluorescent microscopic analysis of conjugate endosomal escape; conditions: Alexa-488 labeled peptide, 25 μM Antp-BH3, 15 minutes treatment
# Experimental: as §1
# An amine reactive Alexa-488 succinimidyl ester was mixed at a 1 to 1 molar ratio with the Antp-BH3 peptide in anhydrous dimethyl formamide (DMF). Unreacted fluorophore and organic solvent were removed using a PD 10 desalting column, and the fluorescently labeled peptide was lyophilized. Alexa-488 labeled Antp-BH3 was conjugated to the polymer as described above. Free peptide or polymer-peptide conjugate was applied to HeLas grown on chambered microscope slides at a concentration of 25 μM Antp-BH3. Cells were treated for 15 minutes, washed twice with PBS, and incubated in fresh media for an additional 30 minutes. The samples were washed again and fixed with 4% paraformaldehyde for 10 minutes at 37° C. Slides were mounted with ProLong Gold Antifade reagent containing DAPI and imaged using a fluorescent microscope.
# erythrocytes = conditions: pH 5.8
# Experimental: In order to assess the polymer's potential for endosomolytic activity, a membrane disruption assay was utilized to measure the capacity of the polymer to trigger pH-dependent disruption of lipid bilayer membranes as shown in FIG. 5. Whole human blood was drawn and centrifuged for plasma removal. The remaining erythrocytes were washed three times with 150 mM NaCl and resuspended into phosphate buffers corresponding to physiological (pH 7.4), early endosome (pH 6.6), and late endosome (pH 5.8) environments. The polymer (1-40 μg/mL) or 1% Triton X-100 was added to the erythrocyte suspensions and incubated for 1 hour at 37° C. Intact erythrocytes were pelleted via centrifugation, and the hemoglobin content within the supernatant was measured via absorbance at 541 nm. Percent hemolysis was determined relative to Triton X-100. Polymer hemolysis was quantified at concentrations ranging from 1-40 μg/mL relative to 1% v/v Triton X-100. This experiment was completed 2 times in triplicate, yielding similar results. The data shown represent a single experiment conducted in triplicate±standard deviation.
Substance,caspase 3/7 activation (caspases 3 and 7),HeLa cell death / treatment effect (qualitative) (HeLa cells [1]),increase in percent of cells exhibiting loss of mitochondrial polarity (HeLa cells [2]),peptide intracellular localization (fluorescence pattern) (HeLa cells [3]),hemolysis (erythrocytes)
"NH2-RQIKIWFQNRRMKWKKMGQVGRQLAIIGDDINRRYDSC-COOH (H-RQIKIWFQNRRMKWKKMGQVGRQLAIIGDDINRRYDSC-OH) [Antp-BH3 peptide, cell internalizing form of the Bak-BH3 peptide fused to Antennapedia peptide, carboxy-terminal cysteine]",approximately 2.5 fold,negligible treatment effect,approximately 4 fold,punctate staining,–
Poly[HPMA]-b-[(PAA)(BMA)(DMAEMA)] [diblock copolymer],–,–,–,–,significant increase in hemolysis

# — patent publication US9220791B2, “Bispecific intracellular delivery vehicles” (University of Washington, priority 2008, dated 2015)
